Patent US11098073B2, “Triphenylphosphonium-tethered tetracyclines for use in treating cancer” (Oxford University Innovation Limited, priority 2017, dated 2021)
Counter-ions that a name gives are not always drawn.

Each molecule was assayed on MDA-231 cancer cells (assay: Inhibition of proliferation assay: cell confluence (IncuCyte live cell imaging)). Conditions: compound tested at 10 μM, images every 3 h over 4-5 d, relative confluence normalised to time zero.
Assay type: cell-based
Source text: Inhibition of Proliferation Assay
The confluence value is a surrogate for cell proliferation and growth. The value is expressed as a percent confluence, which represents the fraction of culture dish-surface that is occupied by cells. As the number of cells in the dish increases over time due to proliferation, so will their coverage of that surface increase. Expansion of the cell population on the cell culture-dish surface and confluence have mostly a linear relationship until the cells on the plate surface begin to reach saturation or maximum density.
Confluence is determined based on image analysis. Image based software can identify objects in the image field base on changes to pixel density in a grey scale image. The software can then assign a mask to those pixels within the object. Objects can be ‘gated’ out based on size and shape. To determine cell confluence, images of cells are first masked as objects. The surface area of the image that is masked is measured and compared to the total surface area of the culture dish surface to obtain a percent confluence.
MDA-231 cancer cells were obtained from ATCC. Cells were cultured in Dulbecco's Modified Eagle Medium (DMEM) supplemented with 10% Fetal Bovine Serum (FBS), 2 mM Glutamax, 1 mM Non Essential Amino Acid (NEAA) solution and 1 mM sodium pyruvate. […] Final DMSO concentrations were […]. Images were acquired with an IncuCyte Live Cell Imaging microscopy (Essen Bioscience) at every 3 h under cell culture conditions with 10 OX objective over 4-5 d. Cell confluence was calculated from one field of view per well using the IncuCyte in-built algorithm. Relative confluence values were obtained by normalising each value to the time zero value in each sample.
With `C[C@H]1c2ccc(NC(=O)CCCCCCC[P+](c3ccccc3)(c3ccccc3)c3ccccc3)c(O)c2C(=O)C2=C(O)[C@]3(O)C(=O)C(C(N)=O)=C(O)[C@@H](N(C)C)[C@@H]3[C@@H](O)[C@@H]21` [Example 2, (7-{[(5R,5aR,6S,6aR,7S,10aS)-9-carbamoyl-7-(dimethylamino)-1,6,8,10a,11-pentahydroxy-5-methyl-10,12-dioxo-5,5a,6,6a,7,10,10a,12-octahydrotetracen-2-yl]carbamoyl}heptyl)triphenylphosphonium formate] the “% Confluence” value was 81.2%.
In the case of `C[C@H]1c2ccc(CNC(=O)CCCCCCCCC[P+](c3ccccc3)(c3ccccc3)c3ccccc3)c(O)c2C(=O)C2=C(O)[C@]3(O)C(=O)C(C(N)=O)=C(O)[C@@H](N(C)C)[C@@H]3[C@@H](O)[C@@H]21` [Example 5, trifluoroacetate], the “% Confluence” value is reported as 37%.
With `C[C@H]1c2ccc(NC(=O)CCNC(=O)CCCCCCCCC[P+](c3ccccc3)(c3ccccc3)c3ccccc3)c(O)c2C(=O)C2=C(O)[C@]3(O)C(=O)C(C(N)=O)=C(O)[C@@H](N(C)C)[C@@H]3[C@@H](O)[C@@H]21` [Example 11, {9-[(2-{[(5R,5aR,6S,6aR,7S,10aS)-9-carbamoyl-7-(dimethylamino)-1,6,8,10a,11-pentahydroxy-5-methyl-10,12-dioxo-5,5a,6,6a,7,10,10a,12-octahydrotetracen-2-yl]carbamoyl}ethyl)carbamoyl]nonyl}triphenylphosphonium trifluoroacetate] the “% Confluence” value was 45%.
With `C[C@H]1c2ccc(NC(=O)CCCCCCCCCCC[P+](c3ccccc3)(c3ccccc3)c3ccccc3)c(O)c2C(=O)C2=C(O)[C@]3(O)C(=O)C(C(N)=O)=C(O)[C@@H](N(C)C)[C@@H]3[C@@H](O)[C@@H]21` [Example 1, (11-{[(5R,5aR,6S,6aR,7S,10aS)-9-carbamoyl-7-(dimethylamino)-1,6,8,10a,11-pentahydroxy-5-methyl-10,12-dioxo-5,5a,6,6a,7,10,10a,12-octahydrotetracen-2-yl]carbamoyl}undecyl)triphenylphosphonium formate] the “% Confluence” value was 27.1%.
`C[C@H]1c2ccc(NC(=O)CCCCCCCCCC[P+](c3ccccc3)(c3ccccc3)c3ccccc3)c(O)c2C(=O)C2=C(O)[C@]3(O)C(=O)C(C(N)=O)=C(O)[C@@H](N(C)C)[C@@H]3[C@@H](O)[C@@H]21` [Example 6, (10-{[(5R,5aR,6S,6aR,7S,10aS)-9-carbamoyl-7-(dimethylamino)-1,6,8,10a,11-pentahydroxy-5-methyl-10,12-dioxo-5,5a,6,6a,7,10,10a,12-octahydrotetracen-2-yl]carbamoyl}decyl)triphenylphosphonium trifluoroacetate] was tested, and the “% Confluence” value was 36.8%.
For `C[C@H]1c2ccc(NC(=O)CCCCCCCC[P+](c3ccccc3)(c3ccccc3)c3ccccc3)c(O)c2C(=O)C2=C(O)[C@]3(O)C(=O)C(C(N)=O)=C(O)[C@@H](N(C)C)[C@@H]3[C@@H](O)[C@@H]21.[Cl-]` [Example 20], the “% Confluence” value was 25.2%.
With `C[C@H]1c2ccc(CNC(=O)CCCCC[P+](c3ccccc3)(c3ccccc3)c3ccccc3)c(O)c2C(=O)C2=C(O)[C@]3(O)C(=O)C(C(N)=O)=C(O)[C@@H](N(C)C)[C@@H]3[C@@H](O)[C@@H]21` [Example 16, trifluoroacetate] the “% Confluence” value was 116.3%.
In the case of `C[C@H]1c2c(NC(=O)CCCCCCCCC[P+](c3ccccc3)(c3ccccc3)c3ccccc3)ccc(O)c2C(=O)C2=C(O)[C@]3(O)C(=O)C(C(N)=O)=C(O)[C@@H](N(C)C)[C@@H]3[C@@H](O)[C@@H]21` [Example 14, (9-{[(6aS,10S,10aR,11 S,11 aR,12R)-8-carbamoyl-10-(dimethylamino)-4,6,6a,9,11-pentahydroxy-12-methyl-5,7-dioxo-5,6a,7,10,10a,11,11a,12-octahydrotetracen-1-yl]carbamoyl}nonyl)triphenylphosphonium trifluoroacetate], the “% Confluence” value is reported as 87.9%.
In the case of `C[C@H]1c2ccc(NC(=O)CNC(=O)CCCCC[P+](c3ccccc3)(c3ccccc3)c3ccccc3)c(O)c2C(=O)C2=C(O)[C@]3(O)C(=O)C(C(N)=O)=C(O)[C@@H](N(C)C)[C@@H]3[C@@H](O)[C@@H]21` [Example 8, {5-[({[(5R,5aR,6S,6aR,7S,10aS)-9-carbamoyl-7-(dimethylamino)-1,6,8,10a,11-pentahydroxy-5-methyl-10,12-dioxo-5,5a,6,6a,7,10,10a,12-octahydrotetracen-2-yl]carbamoyl}methyl)carbamoyl]pentyl}triphenylphosphonium trifluoroacetate], the “% Confluence” value is reported as 96.2%.
In the case of `C[C@H]1c2c(NC(=O)CCCCCCCCCCC[P+](c3ccccc3)(c3ccccc3)c3ccccc3)ccc(O)c2C(=O)C2=C(O)[C@]3(O)C(=O)C(C(N)=O)=C(O)[C@@H](N(C)C)[C@@H]3[C@@H](O)[C@@H]21` [Example 13, (11-{[(6aS,10S,10aR,11 S,11 aR,12R)-8-carbamoyl-10-(dimethylamino)-4,6,6a,9,11-pentahydroxy-12-methyl-5,7-dioxo-5,6a,7,10,10a,11,11a,12-octahydrotetracen-1-yl]carbamoyl}undecyl)triphenylphosphonium trifluoroacetate], the “% Confluence” value is reported as 53.7%.
For `C[C@H]1c2ccc(NC(=O)CCCCC[P+](c3ccccc3)(c3ccccc3)c3ccccc3)c(O)c2C(=O)C2=C(O)[C@]3(O)C(=O)C(C(N)=O)=C(O)[C@@H](N(C)C)[C@@H]3[C@@H](O)[C@@H]21.[Cl-]` [Example 18], the “% Confluence” value was 59.1%.
`C[C@H]1c2cccc(O)c2C(=O)C2=C(O)[C@]3(O)C(=O)C(C(N)=O)=C(O)[C@@H](N(C)C)[C@@H]3[C@@H](O)[C@@H]21` [Doxycycline, reference compound] was tested, and the “% Confluence” value was 98.7%.
With `C[C@H]1c2ccc(NC(=O)CCNC(=O)CCCCCCC[P+](c3ccccc3)(c3ccccc3)c3ccccc3)c(O)c2C(=O)C2=C(O)[C@]3(O)C(=O)C(C(N)=O)=C(O)[C@@H](N(C)C)[C@@H]3[C@@H](O)[C@@H]21` [Example 10, {7-[(2-{[(5R,5aR,6S,6aR,7S,10aS)-9-carbamoyl-7-(dimethylamino)-1,6,8,10a,11-pentahydroxy-5-methyl-10,12-dioxo-5,5a,6,6a,7,10,10a,12-octahydrotetracen-2-yl]carbamoyl}ethyl)carbamoyl]heptyl}triphenylphosphonium trifluoroacetate] the “% Confluence” value was 92.2%.
In the case of `C[C@H]1c2ccc(NC(=O)CNC(=O)CCCCCCC[PH](c3ccccc3)(c3ccccc3)c3ccccc3)c(O)c2C(=O)C2=C(O)[C@]3(O)C(=O)C(C(N)=O)=C(O)[C@@H](N(C)C)[C@@H]3[C@@H](O)[C@@H]21` [Example 3, {7-[({[(5R,5aR,6S,6aR,7S,10aS)-9-carbamoyl-7-(dimethylamino)-1,6,8,10a,11-pentahydroxy-5-methyl-10,12-dioxo-5,5a,6,6a,7,10,10a,12-octahydrotetracen-2-yl]carbamoyl}methyl)carbamoyl]heptyl}triphenylphosphonium trifluoroacetate], the “% Confluence” value is reported as 99.9%.
In the case of `C[C@H]1c2ccc(NC(=O)CNC(=O)CCC[P+](c3ccccc3)(c3ccccc3)c3ccccc3)c(O)c2C(=O)C2=C(O)[C@]3(O)C(=O)C(C(N)=O)=C(O)[C@@H](N(C)C)[C@@H]3[C@@H](O)[C@@H]21` [Example 9, {3-[({[(5R,5aR,6S,6aR,7S,10aS)-9-carbamoyl-7-(dimethylamino)-1,6,8,10a,11-pentahydroxy-5-methyl-10,12-dioxo-5,5a,6,6a,7,10,10a,12-octahydrotetracen-2-yl]carbamoyl}methyl)carbamoyl]propyl}triphenylphosphonium trifluoroacetate], the “% Confluence” value is reported as 83%.
With `C[C@H]1c2c(NC(=O)CCNC(=O)CCCCCCC[P+](c3ccccc3)(c3ccccc3)c3ccccc3)ccc(O)c2C(=O)C2=C(O)[C@]3(O)C(=O)C(C(N)=O)=C(O)[C@@H](N(C)C)[C@@H]3[C@@H](O)[C@@H]21` [Example 15, {7-[(2-{[(6aS,10S,10aR,11S,11aR,12R)-8-carbamoyl-10-(dimethylamino)-4,6,6a,9,11-pentahydroxy-12-methyl-5,7-dioxo-5,6a,7,10,10a,11,11a,12-octahydrotetracen-1-yl]carbamoyl}ethyl)carbamoyl}heptyl}triphenylphosphonium trifluoroacetate] the “% Confluence” value was 112.8%.
For `C[C@H]1c2ccc(NC(=O)CCCCCCCCC[P+](c3ccccc3)(c3ccccc3)c3ccccc3)c(O)c2C(=O)C2=C(O)[C@]3(O)C(=O)C(C(N)=O)=C(O)[C@@H](N(C)C)[C@@H]3[C@@H](O)[C@@H]21` [Example 7, (9-{[(5R,5aR,6S,6aR,7S,10aS)-9-carbamoyl-7-(dimethylamino)-1,6,8,10a,11-pentahydroxy-5-methyl-10,12-dioxo-5,5a,6,6a,7,10,10a,12-octahydrotetracen-2-yl]carbamoyl}nonyl)triphenylphosphonium trifluoroacetate], the “% Confluence” value was 38.7%.

Same assay, conditions: compound tested at 50 μM, images every 3 h over 4-5 d, relative confluence normalised to time zero
With `C[C@H]1c2cccc(O)c2C(=O)C2=C(O)[C@]3(O)C(=O)C(C(N)=O)=C(O)[C@@H](N(C)C)[C@@H]3[C@@H](O)[C@@H]21` [Doxycycline, reference compound] the “% Confluence” value was 91%.
